Assays:
[1] = system: S. typhimurium; test: Spraying whole chicken carcasses with a commercial sprayer; parameters: species or system Salmonella typhimurium
Procedure: (§1) These experiments tested the effect that spraying QACs on whole chicken carcasses using a commercial sprayer would have on the reduction of viable bacteria. The bacterial inoculating solutions were made as follows: E. coli (ATTC #25922) was grown in brain heart infusion broth (BHI) for 20-24 h and then diluted to a 1:1000 concentration by adding 0.5 ml of E. coli culture to 500 ml of physiological saline solution (PSS). S. typhimurium was grown in BHI for 20-24 h and then diluted to a 1:5000 concentration by adding 0.1 ml of S. typhimurium culture to 500 ml of physiological saline solution (PSS). […] Prechill chicken carcasses were obtained from a local poultry processing plant for each trial. The carcasses were placed on a shackle line and 1 ml of the bacterial inoculating solution was sprayed on the breast of the carcass, and 1 ml was sprayed on the back. The bacteria were allowed to attach for 30 min at room temperature. After attachment the carcasses were rinsed on the shackle line with tap water for 20 seconds. The carcasses were divided into groups of ten. […] In the S. typhimurium tests, there was also a group that was not sprayed after inoculation to evaluate the effect of the spray.
(§2) For all of the bacteria, one group of carcasses were treated with the Johnson™ washer for 20 seconds at 60 psi with 35 cups of tap water. After the rinse, the carcasses were allowed to set for 90 seconds, and then rinsed with 20 cups of tap water for 20 seconds at 80 psi. This rinse cycle was repeated either two or three times. The interval of each rinse was also 90 seconds. […] This rinse cycle was repeated either two or three times.
(§3) After treatment the carcasses were placed in plastic bags and 100 ml of 0.1% buffered peptone water (BPW) was added to each bag. The bags were mechanically shaken and the rinse collected for most probable number (MPN) technique. Petrifilm™ was also employed for evaluation of total aerobic plate counts (TPC). Preexisting (not inoculated) C. jejuni was enumerated by the MPN technique and E. coli by Petrifilm™.

[2] = system: Escherichia coli O157:H7
[3] = system: Escherichia coli O157:H7; remark: listed apart in the source
[4] = system: Arcobacter butzleri; test: MBC, macrodilution broth method; format: cell-based; settings: microaerophilic, 37° C., 48 hours
Procedure: (§4) Experiments were conducted by microaerophilic incubation at 37° C. for 48 hours. An aliquot of each dilution was pour plated in agar and incubated in microaerophilic conditions at 37° C. for 48 hours. MBCs were determined as the lowest dilution with no growth.

[5] = system: Campylobacter jejuni; test: MBC, macrodilution broth method; format: cell-based; settings: microaerophilic, 37° C., 48 hours
Procedure: as §4

[6] = system: E. coli; test: Spraying whole chicken carcasses with a commercial sprayer; parameters: species or system Escherichia coli; settings: for BACTERIA PRESENT, 5,000 ppm CPC: Petrifilm, spray 20 seconds at 60 psi
Procedure: as §1, §2, §3

[7] = system: Salmonella; test: Another spraying experiment on chicken carcasses; settings: 90 second spraying of chicken carcasses with 5,000 ppm CPC
[8] = Ames assay for mutagenicity; format: cell-based
Procedure: The present invention has an important application in the food processing industry, as well as for home and institutional food preparation. QACs are readily available and the cost of carrying out the method of the present invention is not expensive as compared to existing antimicrobial processes. […] A range of concentrations of QACs are effective in preventing broad spectrum microbial growth on food products. QACs are tested by the Ames assay for mutagenicity.

[9] = system: S. typhimurium; test: Concentration and time study: reduction of viable S. typhimurium on chicken skin; parameters: species or system Salmonella typhimurium; settings: CPC 4000 and 8000 ppm in 5% glycerin-PBS, contact times as low as 3 min
Procedure: CPC in the glycerin-PBS mixture. […] Salmonella storage was on TSA. Inoculum preparation was performed as follows.
Culture plates with the skin pieces were incubated (30 min., 35° C.), and then the incubating solution was removed by aspiration. The inoculated skins were treated with 5 ml of the test solution. […] A corner of the bag was aseptically cut and the entire contents were transferred to a sterile centrifuge tube, which was then spun for 10 min (12,000 rpm, 20° C.). The pellet was resuspended in 5 ml 0.1% (w/v) peptone/water.

[10] = system: C. jejuni; test: Spraying whole chicken carcasses with a commercial sprayer; parameters: species or system Campylobacter jejuni; settings: for BACTERIA PRESENT, 5,000 ppm CPC: preexisting C. jejuni, MPN, spray 20 seconds at 60 psi
Procedure: as §1, §2, §3

[11] = system: L. monocytogenes; test: Reduction of viable Listeria monocytogenes attached to chicken skin; settings: CPC 2000 ppm or higher
Text: The steps of Example 2 were followed except that L. monocytogenes was used to inoculate the chicken skin and the media in the plastic bag used in the Stomacher 400 contained 0.1% peptone.

[12] = system: Escherichia coli O157:H7; remark: listed apart in the source
[13] = system: L. monocytogenes; test: Inhibition of attachment of Listeria monocytogenes to chicken skin
Text: The steps of Example 3 were followed except that L. monocytogenes was used to inoculate the chicken skin and the media in the plastic bag used in the Stomacher 400 contained 0.1% peptone.

For CCCCCCCCCCCCCCCC[n+]1ccccc1 [CPC, cetylpyridinium chloride], the “Reduction, No Spray vs. CPC Treatment” value ([1]; trial 1 (Dec. 02, 1996)) was 1.047 Log10 CFUs, the “Reduction, Spray vs. CPC Treatment” value ([1]; trial 1 (Dec. 02, 1996)) was 0.744 Log10 CFUs and the “S. typhimurium, 5,000 ppm CPC” value ([1]; trial 1 (Dec. 02, 1996)) was 4.295 Log10 CFUs. The “Reduction, No Spray vs. CPC Treatment” value ([1]; trial 2 (Dec. 09, 1996)) was 3.327 Log10 CFUs, the “Reduction, Spray vs. CPC Treatment” value ([1]; trial 2 (Dec. 09, 1996)) was 2.955 Log10 CFUs and the “S. typhimurium, 5,000 ppm CPC” value ([1]; trial 2 (Dec. 09, 1996)) was 1.977 Log10 CFUs. For the same compound, the “Reduction, No Spray vs. CPC Treatment” value ([1]; trial 3 (Dec. 16, 1996)) was 2.395 Log10 CFUs, the “Reduction, Spray vs. CPC Treatment” value ([1]; trial 3 (Dec. 16, 1996)) was 2.548 Log10 CFUs and the “S. typhimurium, 5,000 ppm CPC” value ([1]; trial 3 (Dec. 16, 1996)) was 2.606 Log10 CFUs. For the same compound, the “Reduction, No Spray vs. CPC Treatment” value ([1]; trial 4 (Jan. 27, 1997)) was 3.69 Log10 CFUs, the “Reduction, Spray vs. CPC Treatment” value ([1]; trial 4 (Jan. 27, 1997)) was 3.45 Log10 CFUs and the “S. typhimurium, 5,000 ppm CPC” value ([1]; trial 4 (Jan. 27, 1997)) was 1.03 Log10 CFUs. For the same compound, the “Reduction, No Spray vs. CPC Treatment” value ([1]; trial 5 (Feb. 03, 1997)) was 2.76 Log10 CFUs, the “Reduction, Spray vs. CPC Treatment” value ([1]; trial 5 (Feb. 03, 1997)) was 2.79 Log10 CFUs and the “S. typhimurium, 5,000 ppm CPC” value ([1]; trial 5 (Feb. 03, 1997)) was 1.426 Log10 CFUs. The “reduction of Salmonella by CPC in the wash water” value ([1]; wash water of the S. typhimurium runs) was 1 log, the “reduction in attached bacteria” value [2] was 62-64% and the “number of attached bacteria reduced to” value [3] was “below 0.1%”. The “CPC Vs Arcobacter Butzleri, growth in MBC test” value (“CPC Vs Arcobacter Butzleri” below) ([4]; CPC 0.50 μg/mL) was “+”, the “CPC Vs Arcobacter Butzleri” value ([4]; CPC 0.98 μg/mL) was “+” and the “CPC Vs Arcobacter Butzleri” value ([4]; CPC 1.96 μg/mL) was “+”. For the same compound, the “CPC Vs Arcobacter Butzleri” value ([4]; CPC 3.91 μg/mL) was “+”, the “CPC Vs Arcobacter Butzleri” value ([4]; CPC 7.81 μg/mL) was “+” and the “CPC Vs Arcobacter Butzleri” value ([4]; CPC 15.63 μg/mL) was “+”. The “CPC Vs Arcobacter Butzleri” value ([4]; CPC 31.25 μg/mL) was “+”, the “CPC Vs Arcobacter Butzleri” value ([4]; CPC 62.5 μg/mL) was “−” and the “CPC Vs Arcobacter Butzleri” value ([4]; CPC 125 μg/mL) was “−”. For the same compound, the “CPC Vs Arcobacter Butzleri” value ([4]; CPC […]) was “+”, the “CPC Vs Campylobacter Jejuni, growth in MBC test” value (shortened to “CPC Vs Campylobacter Jejuni”) ([5]; CPC 0.50 μg/mL) was “+” and the “CPC Vs Campylobacter Jejuni” value ([5]; CPC 0.98 μg/mL) was “+”. For the same compound, the “CPC Vs Campylobacter Jejuni” value ([5]; CPC 1.96 μg/mL) was “+”, the “CPC Vs Campylobacter Jejuni” value ([5]; CPC 3.91 μg/mL) was “+” and the “CPC Vs Campylobacter Jejuni” value ([5]; CPC 7.81 μg/mL) was “−”. The “CPC Vs Campylobacter Jejuni” value ([5]; CPC 15.63 μg/mL) was “−”, the “CPC Vs Campylobacter Jejuni” value ([5]; CPC 31.25 μg/mL) was “−” and the “CPC Vs Campylobacter Jejuni” value ([5]; CPC 62.5 μg/mL) was “−”. The “CPC Vs Campylobacter Jejuni” value ([5]; CPC 125 μg/mL) was “−”, the “CPC Vs Campylobacter Jejuni” value ([5]; CPC […]) was “+” and the “Reduction in Log10 (water control vs 5,000 ppm CPC)” value (from here on “Reduction in Log10”) ([6]; Trial 1) was 1.588 Log10. For the same compound, the “BACTERIA PRESENT, 5,000 ppm CPC” value ([6]; Trial 1) was 0.386, the “Reduction in Log10” value ([6]; Trial 2) was 0.920 Log10 and the “BACTERIA PRESENT, 5,000 ppm CPC” value ([6]; Trial 2) was 0.460. The “reduction of Salmonella” value [7] was 3.3 log10, the “mutagenicity by the Ames assay” value [8] was “nonmutagenic” and the “decontamination (Salmonella reduction) on chicken skin” value [9] was ~5 log10. The “Reduction in Log10” value ([10]; Trial 1) was 2.613 Log10, the “BACTERIA PRESENT, 5,000 ppm CPC” value ([10]; Trial 1) was 0 and the “Reduction in Log10” value ([10]; Trial 2) was 2.014 Log10. The “BACTERIA PRESENT, 5,000 ppm CPC” value ([10]; Trial 2) was 0.629, the “reduction in L. monocytogenes” value [11] was > 4 log10 and the “reduction in the number of bacteria attached to the beef” value [12] was 76%. The “reduction of attached bacteria” value ([13]; 50 ppm CPC) was 82%, the “reduction of attached bacteria” value ([13]; 100 ppm CPC) was 92% and the “reduction of attached bacteria” value ([13]; 500 and 1000 ppm CPC) was 100%.

Reference: patent publication US8323673B2, “Concentrated, non-foaming solution of quaternary ammonium compounds and methods of use” (University of Arkansas, priority 1996, dated 2012)
